Counter-ions that a name gives are not always drawn.

The values below come from patent US10669269B2, “Substituted N-(1H-indazol-4-yl)imidazo[1,2-a]pyridine-3-carboxamide compounds as type III receptor tyrosine kinase inhibitors” (ARRAY BIOPHARMA INC., priority 2010, dated 2020).

The target in test [1] is T1, PDGFR beta (Homo sapiens, UniProt P09619).
T1 construct: endogenous in cells; host or cells: HS27 human fibroblast cell line
As to the kind of experiment: Phospho PDGFR LICOR Cell Assay (Example B). In kind it is cell-based. The note with it: averaged IC50; PDGFR beta phosphorylation in HS27 human fibroblast cell line, PDGF-BB stimulation 10 minutes, normalized to total ERK. In short, it runs like this:
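HS27 human fibroblasts pretreated 1 h with compound, then stimulated 10 min with PDGF-BB. Fixed, permeabilized cells immunostained for phospho-PDGFRβ and total ERK and read by two-colour infrared fluorescence, with phospho signal normalized to ERK. IC50 = 50% of control from 4-parameter logistic fit.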

For test [2], the target named is T2, cFMS (Homo sapiens, UniProt P07333).
T2 construct: THP-1 cells (human acute monocytic leukemia cell line) were serum-starved for 4 hours; endogenous in cells; host or cells: THP-1 cells (human acute monocytic leukemia cell line)
As to the kind of experiment: cFMS Cell-Based Assay (Example C). The note with it: averaged IC50; phospho-cFMS in THP-1 cells stimulated with 250 ng/mL recombinant human MCSF; read-out: cFMS Cell ELISA IC50. A digest of the protocol: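 THP-1 cells serum-starved 4 h, then treated 1 h with compound (9-point, 3-fold series, top dose typically 5,000 nM) at 37 °C, then stimulated 1 min with 250 ng/mL recombinant human MCSF. Phospho-cFMS in lysates quantified by capture ELISA against a purified phospho-protein standard curve. IC50 at 50 percent of control, 4-parameter logistic fit.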

In test [3] the target is T1, PDGFR beta. As to the kind of experiment: Phospho PDGFR Cell Assay, sandwich ELISA (Example A). The class given is cell-based. The note with it: averaged IC50, PDGFR beta phosphorylation in HS27 human fibroblast cell line, PDGF-BB stimulation 5 minutes. A digest of the protocol:
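HS27 human fibroblasts were pretreated with compound for 1 h, stimulated with PDGF-BB for 5 min, then lysed. Phospho-PDGFR beta was measured by sandwich ELISA, and IC50 was taken as the concentration giving 50 percent of control from a 4-parameter logistic fit.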

Test [4] deals with T3, c-KIT (Homo sapiens, UniProt P10721).
T3 construct: M-07e cells (human acute megakaryoblastic leukemia cell line) were serum-starved for 4 hours; endogenous in cells; host or cells: M-07e cells (human acute megakaryoblastic leukemia cell line)
As to the kind of experiment: c-KIT Cell-Based Assay (Example D). The note with it: averaged IC50; phospho-c-KIT in M-07e cells stimulated with 150 ng/ml recombinant human SCF; read-out: cKIT Cell ELISA IC50. A digest of the protocol: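 M-07e cells serum-starved 4 h, treated 1 h with compound (9-point, 3-fold dilutions, top dose typically 5,000 nM) at 37° C, then stimulated 4 min with 150 ng/ml SCF. Phospho-c-KIT in lysates quantified by ELISA against a standard curve; IC50 from 4-parameter logistic fit as 50% of control.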

T1 sequence (P09619 33-1106): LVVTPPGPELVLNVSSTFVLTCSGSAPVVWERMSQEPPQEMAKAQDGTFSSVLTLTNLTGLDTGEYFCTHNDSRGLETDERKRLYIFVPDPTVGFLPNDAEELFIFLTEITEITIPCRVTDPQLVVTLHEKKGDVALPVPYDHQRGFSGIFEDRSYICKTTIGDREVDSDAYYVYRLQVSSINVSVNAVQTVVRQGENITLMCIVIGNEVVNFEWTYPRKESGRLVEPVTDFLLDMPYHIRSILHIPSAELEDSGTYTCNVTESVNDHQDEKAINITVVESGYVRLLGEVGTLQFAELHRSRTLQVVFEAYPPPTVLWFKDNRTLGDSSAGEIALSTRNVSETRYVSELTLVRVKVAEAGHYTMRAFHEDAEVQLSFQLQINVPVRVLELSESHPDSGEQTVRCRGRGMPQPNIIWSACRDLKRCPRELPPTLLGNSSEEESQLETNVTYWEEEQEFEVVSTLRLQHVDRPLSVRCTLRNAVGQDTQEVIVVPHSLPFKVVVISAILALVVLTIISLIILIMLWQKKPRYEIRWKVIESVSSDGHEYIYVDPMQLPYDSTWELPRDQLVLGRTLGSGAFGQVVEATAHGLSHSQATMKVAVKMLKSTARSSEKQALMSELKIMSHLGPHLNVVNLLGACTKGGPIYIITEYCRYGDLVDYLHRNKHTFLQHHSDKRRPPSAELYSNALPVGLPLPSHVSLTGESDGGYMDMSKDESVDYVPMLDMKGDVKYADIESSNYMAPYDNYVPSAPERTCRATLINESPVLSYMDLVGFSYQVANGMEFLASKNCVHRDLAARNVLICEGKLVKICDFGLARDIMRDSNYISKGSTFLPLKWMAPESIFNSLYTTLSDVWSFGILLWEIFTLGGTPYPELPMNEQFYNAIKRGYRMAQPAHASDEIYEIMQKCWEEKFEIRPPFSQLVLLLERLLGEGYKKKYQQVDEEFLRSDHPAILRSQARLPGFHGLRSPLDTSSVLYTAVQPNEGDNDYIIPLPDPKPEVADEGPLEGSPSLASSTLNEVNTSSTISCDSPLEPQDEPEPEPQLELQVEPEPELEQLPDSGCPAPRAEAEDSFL
T2 sequence (P07333 20-972): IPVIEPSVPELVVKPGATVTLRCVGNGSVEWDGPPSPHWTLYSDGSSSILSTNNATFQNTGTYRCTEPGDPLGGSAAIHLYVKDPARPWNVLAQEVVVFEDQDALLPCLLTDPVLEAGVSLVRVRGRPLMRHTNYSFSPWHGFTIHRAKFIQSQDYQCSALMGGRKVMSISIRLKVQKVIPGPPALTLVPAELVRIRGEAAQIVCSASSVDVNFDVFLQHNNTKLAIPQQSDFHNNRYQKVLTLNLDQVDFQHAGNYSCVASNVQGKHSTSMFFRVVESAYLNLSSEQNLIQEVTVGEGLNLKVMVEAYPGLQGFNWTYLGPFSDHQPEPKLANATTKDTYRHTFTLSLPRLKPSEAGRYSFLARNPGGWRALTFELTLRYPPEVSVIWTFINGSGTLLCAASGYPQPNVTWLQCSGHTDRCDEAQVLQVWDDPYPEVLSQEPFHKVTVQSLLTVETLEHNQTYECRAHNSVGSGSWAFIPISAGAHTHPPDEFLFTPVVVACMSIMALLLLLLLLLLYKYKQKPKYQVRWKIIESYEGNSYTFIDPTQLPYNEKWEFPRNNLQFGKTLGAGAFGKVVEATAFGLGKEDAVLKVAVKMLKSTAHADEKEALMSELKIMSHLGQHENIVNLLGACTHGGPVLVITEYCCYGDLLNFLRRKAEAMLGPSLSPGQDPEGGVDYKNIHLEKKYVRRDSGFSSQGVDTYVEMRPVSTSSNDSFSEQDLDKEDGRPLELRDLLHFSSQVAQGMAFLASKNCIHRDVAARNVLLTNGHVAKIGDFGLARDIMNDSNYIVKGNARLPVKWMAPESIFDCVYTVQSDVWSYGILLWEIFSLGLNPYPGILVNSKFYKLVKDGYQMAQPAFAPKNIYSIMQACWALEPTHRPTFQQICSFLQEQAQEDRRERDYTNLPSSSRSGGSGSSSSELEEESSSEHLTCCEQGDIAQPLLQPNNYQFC
T3 sequence (P10721 26-976): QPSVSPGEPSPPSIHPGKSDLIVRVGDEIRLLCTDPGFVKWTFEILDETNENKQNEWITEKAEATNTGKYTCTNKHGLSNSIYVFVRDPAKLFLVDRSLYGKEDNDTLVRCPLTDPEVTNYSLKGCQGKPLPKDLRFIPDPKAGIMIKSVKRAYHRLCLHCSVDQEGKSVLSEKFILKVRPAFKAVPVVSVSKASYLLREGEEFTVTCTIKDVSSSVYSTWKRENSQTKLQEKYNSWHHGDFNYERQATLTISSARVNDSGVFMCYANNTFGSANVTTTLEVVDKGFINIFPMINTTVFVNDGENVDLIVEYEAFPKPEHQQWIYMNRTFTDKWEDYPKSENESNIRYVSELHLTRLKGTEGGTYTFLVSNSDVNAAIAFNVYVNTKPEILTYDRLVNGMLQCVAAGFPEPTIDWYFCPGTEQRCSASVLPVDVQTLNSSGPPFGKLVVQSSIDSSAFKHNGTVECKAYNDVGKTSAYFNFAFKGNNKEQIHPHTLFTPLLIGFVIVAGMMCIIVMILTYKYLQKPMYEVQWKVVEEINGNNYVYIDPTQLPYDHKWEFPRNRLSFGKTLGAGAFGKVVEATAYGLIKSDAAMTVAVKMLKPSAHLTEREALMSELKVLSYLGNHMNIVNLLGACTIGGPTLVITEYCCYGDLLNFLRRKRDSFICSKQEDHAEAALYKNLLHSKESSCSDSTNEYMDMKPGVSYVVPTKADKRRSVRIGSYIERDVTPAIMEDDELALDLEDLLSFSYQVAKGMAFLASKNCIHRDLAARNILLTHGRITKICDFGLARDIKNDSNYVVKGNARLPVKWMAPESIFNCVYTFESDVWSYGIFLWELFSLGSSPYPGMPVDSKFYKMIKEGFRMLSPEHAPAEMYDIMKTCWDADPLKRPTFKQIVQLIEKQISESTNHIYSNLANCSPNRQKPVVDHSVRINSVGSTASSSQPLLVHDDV

For the compound `Cc1nn(Cc2cccc(C3CC3)n2)c2cccc(NC(=O)c3cnc4cc(OCCN5CCN(C)C(C)(C)C5)ccn34)c12` [Example 19, N-(1-((6-cyclopropylpyridin-2-yl)methyl)-3-methyl-1H-indazol-4-yl)-7-(2-(3,3,4-trimethylpiperazin-1-yl)ethoxy)imidazo[1,2-a]pyridine-3-carboxamide], the IC50 was determined as 247 nM in test [1], 9.4 nM in test [2], 43.2 nM in test [3] and 39.1 nM in test [4].
`Cc1nn(Cc2cccc(C3CC3)n2)c2cccc(NC(=O)c3cnc4cc(OCCN5CCN(C)CC5)ccn34)c12` [Example 47, N-(1-((6-cyclopropylpyridin-2-yl)methyl)-3-methyl-1H-indazol-4-yl)-7-(2-(4-methylpiperazin-1-yl)ethoxy)imidazo[1,2-a]pyridine-3-carboxamide]: the IC50 stood at 6.5 nM in test [1], 15.9 nM in test [2], 74.9 nM in test [3] and 48.5 nM in test [4].
On the same counts, the results for `Cc1nn(Cc2cccc(C(C)C)n2)c2cccc(NC(=O)c3cnc4cc(OCCN5CCN(C)[C@H](C)C5)ccn34)c12` [Example 28, (R)-7-(2-(3,4-dimethylpiperazin-1-yl)ethoxy)-N-(1-((6-isopropylpyridin-2-yl)methyl)-3-methyl-1H-indazol-4-yl)imidazo[1,2-a]pyridine-3-carboxamide] are 9.9 nM, 14 nM, 5.9 nM and 35.5 nM.
On the same counts, the results for `Cc1nn(Cc2cccc(C3CC3)n2)c2cccc(NC(=O)c3cnc4cc(OCCN5CCOCC5)ccn34)c12` [Example 18, N-(1-((6-cyclopropylpyridin-2-yl)methyl)-3-methyl-1H-indazol-4-yl)-7-(2-morpholinoethoxy)imidazo[1,2-a]pyridine-3-carboxamide] are 674 nM, 10.2 nM, 59.9 nM and 81.8 nM.
For `CCN1CCN(CCOc2ccn3c(C(=O)Nc4cccc5c4c(C)nn5Cc4cccc(C5CC5)n4)cnc3c2)CC1` [Example 17, N-(1-((6-cyclopropylpyridin-2-yl)methyl)-3-methyl-1H-indazol-4-yl)-7-(2-(4-ethylpiperazin-1-yl)ethoxy)imidazo[1,2-a]pyridine-3-carboxamide] the same measures were 313 nM, 11 nM, 85 nM and 54.2 nM.
With `Cc1nn(Cc2cccc(C3CC3)n2)c2cccc(NC(=O)c3cnc4cc(OCCN5CCN(C)[C@@H](C)C5)ccn34)c12` [Example 26, (S)—N-(1-((6-cyclopropylpyridin-2-yl)methyl)-3-methyl-1H-indazol-4-yl)-7-(2-(3,4-dimethylpiperazin-1-yl)ethoxy)imidazo[1,2-a]pyridine-3-carboxamide dihydrochloride], the IC50 in test [1] came to 63.2 nM; in test [2] it was 13.7 nM; in test [3], 29.6 nM; in test [4], 27.9 nM.
For `Cc1nn(Cc2cccc(C(C)C)n2)c2cccc(NC(=O)c3cnc4cc(OCCN5CCOCC5)ccn34)c12` [Example 1, N-(1-((6-isopropylpyridin-2-yl)methyl)-3-methyl-1H-indazol-4-yl)-7-(2-morpholinoethoxy)imidazo[1,2-a]pyridine-3-carboxamide] the same measures were 12.9 nM, 16.1 nM, 29.7 nM and 53.3 nM.
`Cc1nn(Cc2cccc(C3CC3)n2)c2cccc(NC(=O)c3cnc4cc(OCCN5CCN(C)[C@H](C)C5)ccn34)c12` [Example 27, (R)—N-(1-((6-cyclopropylpyridin-2-yl)methyl)-3-methyl-1H-indazol-4-yl)-7-(2-(3,4-dimethylpiperazin-1-yl)ethoxy)imidazo[1,2-a]pyridine-3-carboxamide dihydrochloride]: the half-inhibitory concentration (IC50) in test [1] came out at 72.6 nM; in test [2], 13.8 nM; in test [3] it was 69.5 nM; in test [4] it was 36.2 nM.
For `Cc1nn(Cc2cccc(C(C)C)n2)c2cccc(NC(=O)c3cnc4cc(OCCN5CCN(C(C)C)CC5)ccn34)c12` [Example 6, 7-(2-(4-Isopropylpiperazin-1-yl)ethoxy)-N-(1-((6-isopropylpyridin-2-yl)methyl)-3-methyl-1H-indazol-4-yl)imidazo[1,2-a]pyridine-3-carboxamide] the same measures were 6.3 nM, 40.9 nM, 33.5 nM and 57 nM.
On the same counts, the results for `Cc1nn(Cc2cccc(C(C)C)n2)c2cccc(NC(=O)c3cnc4cc(OCCN5CC6(CNC6)C5)ccn34)c12` [Example 3, 7-(2-(2,6-diazaspiro[3.3]heptan-2-yl)ethoxy)-N-(1-((6-isopropylpyridin-2-yl)methyl)-3-methyl-1H-indazol-4-yl)imidazo[1,2-a]pyridine-3-carboxamide trihydrochloride] are 10 nM, 70.4 nM, 138 nM and 176 nM.
Regarding `CCN1CCN(CCOc2ccn3c(C(=O)Nc4cccc5c4c(C)nn5Cc4cccc(C(C)C)n4)cnc3c2)CC1` [Example 2, 7-(2-(4-Ethylpiperazin-1-yl)ethoxy)-N-(1-((6-isopropylpyridin-2-yl)methyl)-3-methyl-1H-indazol-4-yl)imidazo[1,2-a]pyridine-3-carboxamide], the concentration for half-maximal inhibition (IC50) in test [1] was determined as 23.7 nM; in test [2], 27.7 nM; in test [3] it was 9.4 nM; in test [4], 41.1 nM.
For the compound `Cc1nn(Cc2cccc(C(F)(F)F)n2)c2cccc(NC(=O)c3cnc4cc(OCCN5CCN(C(C)C)CC5)ccn34)c12` [Example 45, 7-(2-(4-isopropylpiperazin-1-yl)ethoxy)-N-(3-methyl-1-((6-(trifluoromethyl)pyridin-2-yl)methyl)-1H-indazol-4-yl)imidazo[1,2-a]pyridine-3-carboxamide], the half-maximal inhibitory concentration (IC50) in test [1] was found to be 113 nM; in test [2] it was 13.4 nM; in test [3], 347 nM; in test [4], 166 nM.
For `Cc1nn(Cc2ccc(C(F)(F)F)cn2)c2cccc(NC(=O)c3cnc4cc(OCCN5CCN(C(C)C)CC5)ccn34)c12` [Example 44, 7-(2-(4-isopropylpiperazazin-1-yl)ethoxy)-N-(3-methyl-1-((5-(trifluoromethyl)pyridin-2-yl)methyl)-1H-indazol-4-yl)imidazo[1,2-a]pyridine-3-carboxamide] the same measures were 794 nM, 22.7 nM, 116 nM and 63.4 nM.
For `Cc1nn(Cc2cccc(C(C)C)n2)c2cccc(NC(=O)c3cnc4cc(OCCN5CC6(CN(C)C6)C5)ccn34)c12` [Example 4, N-(1-((6-isopropylpyridin-2-yl)methyl)-3-methyl-1H-indazol-4-yl)-7-(2-(6-methyl-2,6-diazaspiro[3.3]heptan-2-yl)ethoxy)imidazo[1,2-a]pyridine-3-carboxamide], the half-maximal inhibitory concentration (IC50) was 10.7 nM in test [1], 29.4 nM in test [2], 27.9 nM in test [3] and 81.6 nM in test [4].
`Cc1nn(Cc2cccc(C(C)C)n2)c2cccc(NC(=O)c3cnc4cc(OCCN5CCN(C)[C@@H](C)C5)ccn34)c12` [Example 25, (S)-7-(2-(3,4-dimethylpiperazin-1-yl)ethoxy)-N-(1-((6-isopropylpyridin-2-yl)methyl)-3-methyl-1H-indazol-4-yl)imidazo[1,2-a]pyridine-3-carboxamide]: the half-inhibitory concentration (IC50) in test [1] worked out at 18 nM; in test [2] it was 23.8 nM; in test [3] it was 41.8 nM; in test [4] it was 51.4 nM.
As for `Cc1cccc(CCn2nc(C)c3c(NC(=O)c4cnc5cc(OCCN6CCN(C)[C@@H](C)C6)ccn45)cccc32)n1` [Example 42, (S)-7-(2-(3,4-dimethylpiperazin-1-yl)ethoxy)-N-(3-methyl-1-(2-(6-methylpyridin-2-yl)ethyl)-1H-indazol-4-yl)imidazo[1,2-a]pyridine-3-carboxamide], the figures for the IC50 in test [1] and in test [3] were 4800 nM and at least 1000 nM, respectively.
Take `Cc1cc(C)nc(Cn2nc(C)c3c(NC(=O)c4cnc5cc(OCCN6CCN(C)[C@@H](C)C6)ccn45)cccc32)c1` [Example 34, (S)-7-(2-(3,4-dimethylpiperazin-1-yl)ethoxy)-N-(1-((4,6-dimethylpyridin-2-yl)methyl)-3-methyl-1H-indazol-4-yl)imidazo[1,2-a]pyridine-3-carboxamide]: the IC50 in test [1] is 1670 nM; in test [3] it was at least 1000 nM.
